The results in this text go back to US10689340B2, “Substituted indoline derivatives as dengue viral replication inhibitors” (priority 2016, dated 2020).

Molecules are shown by their SMILES. A value given as a limit tells only on which side of the number the result lay.

The nature of series [1]: in vitro. Particulars: African green monkey.
The subject of series [2] is DENV-2 16681 strain. In words: DENV-2 antiviral assay (eGFP fluorescence). It counts as cell-based, Dengue virus. Particulars: DENV-2 16681 eGFP, Vero cells, MOI 0.5, 3 days. On the procedure: The antiviral activity of all the compounds of the invention was tested against the DENV-2 16681 strain which was labeled with enhanced green fluorescent protein (eGPF). The culture medium consists of minimal essential medium supplemented with 2% of heat-inactivated fetal calf serum, 0.04% gentamycin (50 mg/mL) and 2 mM of L-glutamine. Vero cells, obtained from ECACC, were suspended in culture medium and 25 μL was added to 384-well plates (2500 cells/well), which already contain the antiviral compounds. Typically, these plates contain a 5-fold serial dilution of 9 dilution steps of the test compound at 200 times the final concentration in 100% DMSO (200 nL). […] Finally, each plate contains wells which are assigned as virus controls (containing cells and virus in the absence of compound), cell controls (containing cells in the absence of virus and compound) and medium controls (containing medium in the absence of cells, virus and compounds). To the wells assigned as medium control, 25 μL of culture medium was added instead of Vero cells. Once the cells were added to the plates, the plates were incubated for 30 minutes at room temperature to allow the cells to distribute evenly within the wells. Next, the plates were incubated in a fully humidified incubator (37° C., 5% CO2) until the next day. Then, DENV-2 strain 16681, labeled with eGFP, was added at a multiplicity of infection (MOI) of 0.5. Therefore, 15 μL of virus suspension was added to all the wells containing test compound and to the wells assigned as virus control. In parallel, 15 μL of culture medium was added to the medium and cell controls. Next, the plates were incubated for 3 days in a fully humidified incubator (37° C., 5% CO2). At the day of the read out, the eGFP fluorescence was measured using an automated fluorescence microscope at 488 nm (blue laser). Using an in-house LIMS system, inhibition dose response curves for each compound were calculated and the half maximal effective concentration (EC50) was determined. Therefore, the percent inhibition (I) for every test concentration is calculated using the following formula: I=100*(ST-SCC)/(SVC-SCC); ST, SCC and SVC are the amount of eGFP signal in the test compound, cell control and virus control wells, respectively. The EC50, represents the concentration of a compound at which the virus replication is inhibited with 50%, as measured by a 50% reduction of the eGFP fluorescent intensity compared to the virus control. The EC50 is calculated using linear interpolation (Table 1).

Series [3] relates to Vero cells. Particulars: African green monkey.
Where [4] appears, read: Dengue virus, DENV2, Vero, 72 h.

For orientation: EC50 means the concentration giving half of the maximal effect. In turn, `COc1cc(NC(C(=O)N2CCc3ccc(C(F)(F)F)cc32)c2ccc(F)cc2)cc(OCCCC(=O)O)c1` (racemic) [Compound 1, 4-(3-((1-(4-fluorophenyl)-2-oxo-2-(6-(trifluoromethyl)-indolin-1-yl)ethyl)amino)-5-methoxyphenoxy)butanoic acid] displayed a CC50 in series [1] of over 25000 nM. In series [2] (setting [4]), this molecule yielded an EC50 of 2.1 nM.

`COc1cc(NC(C(=O)N2CCc3ccc(OC(F)(F)F)cc32)c2ccc(F)cc2)cc(OCCCC(=O)O)c1` (racemic) [Compound 2, 4-(3-((1-(4-fluorophenyl)-2-oxo-2-(6-(trifluoromethoxy)indolin-1-yl)ethyl)amino)-5-methoxyphenoxy)butanoic acid] had a CC50 in series [1] of 12000 nM. The molecule further showed an EC50 in series [2] (setting [4]) of 0.55 nM.

`COc1cc(NC(C(=O)N2CCc3ccc(OC(F)(F)F)cc32)c2ccc(Cl)cc2)cc(OCCCC(=O)O)c1` (racemic) [Compound 4, 4-(3-((1-(4-chlorophenyl)-2-oxo-2-(6-(trifluoromethoxy)indolin-1-yl)ethyl)amino)-5-methoxyphenoxy)butanoic acid] displayed a CC50 in series [1] of 10000 nM. In series [2] (setting [4]), this molecule registered an EC50 of 0.15 nM.

For the molecule `COc1cc(NC(C(=O)N2CCc3cc(OC)c(C(F)(F)F)cc32)c2ccc(Cl)cc2)cc(OCCCC(=O)O)c1` (racemic) [Compound 5, 4-(3-((1-(4-chlorophenyl)-2-(5-methoxy-6-(trifluoromethyl)indolin-1-yl)-2-oxoethyl)amino)-5-methoxyphenoxy)butanoic Acid], the CC50 in series [1] stood at 13000 nM. The response in series [2] (setting [4]) was half-maximal at 0.62 nM (EC50).

In the case of `COc1cc(NC(C(=O)N2CCc3ccc(C(F)(F)F)cc32)c2ccc(Cl)cc2OC)cc(OCCCC(=O)O)c1` (racemic) [Compound 6, 4-(3-((1-(4-chloro-2-methoxyphenyl)-2-oxo-2-(6-(trifluoro-methyl)indolin-1-yl)ethyl)amino)-5-methoxyphenoxy)butanoic acid], the CC50 in series [1] worked out at 12000 nM. Moreover, the EC50 in series [2] (setting [4]) is 0.31 nM.

As for `COc1cc(NC(C(=O)N2CCc3cc(OC)c(C(F)(F)F)cc32)c2ccc(Cl)cc2OC)cc(OCCCC(=O)O)c1` (racemic) [Compound 7, 4-(3-((1-(4-chloro-2-methoxyphenyl)-2-(5-methoxy-6-(trifluoromethyl)indolin-1-yl)-2-oxoethyl)amino)-5-methoxyphenoxy)butanoic acid], the CC50 in series [1] is 12000 nM. The molecule also returned an EC50 in series [2] (setting [4]) of 0.47 nM.

With `COc1cc(NC(C(=O)N2CCc3ccc(OC(F)(F)F)cc32)c2ccc(Cl)cc2OC)cc(OCCCC(=O)O)c1` (racemic) [Compound 8, 4-(3-((1-(4-chloro-2-methoxyphenyl)-2-oxo-2-(6-(trifluoro-methoxy)indolin-1-yl)ethyl)amino)-5-methoxyphenoxy)butanoic acid], in series [1], the CC50 came out at 12000 nM. Also, a half-maximal response in series [2] (setting [4]) (EC50) required 0.13 nM.

For `COc1cc(NC(C(=O)N2CCc3ccc(C(F)(F)F)cc32)c2ccc(Cl)cc2F)cc(OCCCC(=O)O)c1` (racemic) [Compound 9, 4-(3-((1-(4-chloro-2-fluorophenyl)-2-oxo-2-(6-(trifluoromethyl)indolin-1-yl)ethyl)amino)-5-methoxy-phenoxy)butanoic acid], the CC50 in series [1] was 11000 nM. In series [2] (setting [4]), this molecule gave an EC50 of 0.96 nM.

Turning to `COc1cc(NC(C(=O)N2CCc3ccc(OC(F)(F)F)cc32)c2ccc(Cl)cc2F)cc(OCCCC(=O)O)c1` (racemic) [Compound 10, 4-(3-((1-(4-chloro-2-fluorophenyl)-2-oxo-2-(6-(trifluoromethoxy)indolin-1-yl)ethyl)amino)-5-methoxy-phenoxy)butanoic acid], the CC50 in series [1] stood at 10000 nM. Also, the response in series [2] (setting [4]) was half-maximal at 0.24 nM (EC50).

`COc1cc(NC(C(=O)N2CCc3cc(OC)c(C(F)(F)F)cc32)c2ccc(Cl)cc2F)cc(OCCCC(=O)O)c1` (racemic) [Compound 11, 4-(3-((1-(4-chloro-2-fluorophenyl)-2-(5-methoxy-6-(trifluoromethyl)indolin-1-yl)-2-oxoethyl)amino)-5-methoxyphenoxy)butanoic acid]: in series [1], the CC50 stood at 11000 nM. This molecule also came in with an EC50 in series [2] (setting [4]) of 0.66 nM.

Consider `COc1cc(NC(C(=O)N2CCc3cc(OC)c(OC(F)(F)F)cc32)c2ccc(Cl)cc2)cc(OCCCC(=O)O)c1` (racemic) [Compound 12, 4-(3-((1-(4-chlorophenyl)-2-(5-methoxy-6-(trifluoro-methoxy)indolin-1-yl)-2-oxoethyl)amino)-5-methoxyphenoxy)butanoic acid], for which the CC50 in series [1] amounted to 12000 nM. The EC50 in series [2] (setting [4]) amounted to 0.73 nM.

Molecule `COc1cc(NC(C(=O)N2CCc3ccc(C(F)(F)F)cc32)c2ccc(F)cc2)cc(OCCCC(=O)O)c1` (single isomer, unassigned) [Compound 1A] gave a CC50 in series [1] of over 25000 nM. The EC50 in series [2] amounted to 180 nM.

With `COc1cc(NC(C(=O)N2CCc3ccc(OC(F)(F)F)cc32)c2ccc(F)cc2)cc(OCCCC(=O)O)c1` (single isomer, unassigned) [Compound 2A], the CC50 in series [1] stood at 14000 nM. This molecule showed an EC50 in series [2] of 56 nM.

`COc1cc(NC(C(=O)N2CCc3ccc(C(F)(F)F)cc32)c2ccc(Cl)cc2)cc(OCCCC(=O)O)c1` (single isomer, unassigned) [Compound 3A]: the CC50 in series [1] worked out at 11000 nM. The molecule also returned an EC50 in series [2] of 3.9 nM.

In the case of `COc1cc(NC(C(=O)N2CCc3ccc(OC(F)(F)F)cc32)c2ccc(Cl)cc2)cc(OCCCC(=O)O)c1` (single isomer, unassigned) [Compound 4A], in series [1], the CC50 stood at 10000 nM. The molecule also gave an EC50 in series [2] of 31 nM.

For the molecule `COc1cc(NC(C(=O)N2CCc3cc(OC)c(C(F)(F)F)cc32)c2ccc(Cl)cc2)cc(OCCCC(=O)O)c1` (single isomer, unassigned) [Compound 5A], the CC50 in series [1] worked out at 12000 nM. In series [2], this molecule registered an EC50 of 19 nM.

The molecule `COc1cc(NC(C(=O)N2CCc3ccc(C(F)(F)F)cc32)c2ccc(Cl)cc2OC)cc(OCCCC(=O)O)c1` (single isomer, unassigned) [Compound 6A] displayed a CC50 in series [1] of 12000 nM. The same molecule returned an EC50 in series [2] of 23 nM.

Turning to `COc1cc(NC(C(=O)N2CCc3cc(OC)c(C(F)(F)F)cc32)c2ccc(Cl)cc2OC)cc(OCCCC(=O)O)c1` (single isomer, unassigned) [Compound 7A], the CC50 in series [1] amounted to 12000 nM. This molecule also yielded an EC50 in series [2] of 24 nM.

`COc1cc(NC(C(=O)N2CCc3ccc(OC(F)(F)F)cc32)c2ccc(Cl)cc2OC)cc(OCCCC(=O)O)c1` (single isomer, unassigned) [Compound 8A] had a CC50 in series [1] of 12000 nM. This molecule showed an EC50 in series [2] of 280 nM.

`COc1cc(NC(C(=O)N2CCc3ccc(C(F)(F)F)cc32)c2ccc(Cl)cc2F)cc(OCCCC(=O)O)c1` (single isomer, unassigned) [Compound 9A] had a CC50 in series [1] of 12000 nM. The EC50 in series [2] amounted to 31 nM.

In turn, `COc1cc(NC(C(=O)N2CCc3ccc(OC(F)(F)F)cc32)c2ccc(Cl)cc2F)cc(OCCCC(=O)O)c1` (single isomer, unassigned) [Compound 10B] displayed a CC50 in series [3] of 8800 nM. In series [2], this molecule yielded an EC50 of 5.5 nM.

Consider `COc1cc(NC(C(=O)N2CCc3cc(OC)c(C(F)(F)F)cc32)c2ccc(Cl)cc2F)cc(OCCCC(=O)O)c1` (single isomer, unassigned) [Compound 11A], for which the CC50 in series [1] was found to be 12000 nM. This molecule also showed an EC50 in series [2] of 15 nM.

In series [1], `COc1cc(NC(C(=O)N2CCc3cc(OC)c(OC(F)(F)F)cc32)c2ccc(Cl)cc2)cc(OCCCC(=O)O)c1` (single isomer, unassigned) [Compound 12A] showed a CC50 of 12000 nM. This molecule gave an EC50 in series [2] of 380 nM.
